Target: T1, Glucose-6-phosphatase catalytic subunit 1 (Rattus norvegicus) (UniProt P43428)
T1 sequence (whole entry): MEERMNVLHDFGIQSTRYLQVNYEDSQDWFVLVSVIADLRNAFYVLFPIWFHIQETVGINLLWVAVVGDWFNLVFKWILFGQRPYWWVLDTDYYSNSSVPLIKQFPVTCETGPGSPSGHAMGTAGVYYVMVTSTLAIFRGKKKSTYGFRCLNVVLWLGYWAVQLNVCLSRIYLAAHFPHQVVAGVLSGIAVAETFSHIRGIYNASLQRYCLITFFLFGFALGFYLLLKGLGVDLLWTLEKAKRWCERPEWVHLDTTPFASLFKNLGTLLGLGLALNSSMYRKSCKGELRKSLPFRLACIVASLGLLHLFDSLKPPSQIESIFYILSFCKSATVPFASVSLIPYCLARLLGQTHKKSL
Test: In vitro inhibition of glucose-6-phosphatase obtained from rat was determined at 100 uM concentration

SMILES | inhibition [%]
CCOC(=O)CC/N=C(\S)Nc1ccc(Cl)cn1 | 54.4
CCOC(=O)C(Cc1ccccc1)/N=C(\S)Nc1ccc(Cl)cn1 (stereo not given) | 50
COC(=O)C/N=C(\S)Nc1ccc(Cl)cn1 | 74.6
COC(=O)C(Cc1c[nH]c2ccccc12)/N=C(\S)Nc1ccccn1 (stereo not given) | 21.5
COC(=O)C(Cc1c[nH]c2ccccc12)/N=C(\S)Nc1ccc(Cl)cn1 (stereo not given) | 52.2

Next, values leading:

inhibition [%] | SMILES
17.7 | COC(=O)C(C)/N=C(\S)Nc1ccccn1 (stereo not given)
29 | CCOC(=O)C(Cc1ccccc1)/N=C(\S)Nc1ccccn1 (stereo not given)
20 | N=C(N)/N=C(\S)Nc1ccccn1
38.5 | N/N=C(\S)Nc1ccccn1
18 | CCOC(=O)CC/N=C(\S)Nc1ccccn1
